Assay [1] has as its system PC-3. The experiment in a line: Antiproliferative activity against human PC3 cells by MTS assay. It counts as functional.
The subject of assay [2] is HT-29. Put plainly: Antiproliferative activity against human HT-29 cells by MTS assay. Format: functional.
Assay [3] concerns MCF7. The experiment in a line: Antiproliferative activity against human MCF7 cells by MTS assay. Format: functional.
Assay [4] has as its target Epidermal growth factor receptor (Homo sapiens, UniProt P00533). The experiment in a line: Inhibition of EGFR (unknown origin).
The nature of assay [5]: Antiproliferative activity against human EAhy926 cells by MTS assay. It counts as functional, cell-based. To be noted: EA.hy 926.
Assay [6] deals with PC-3. The experiment in a line: Antiproliferative activity against human PC3 cells at 10 uM by MTS assay. It counts as functional, cell-based.
The test system of assay [7] is MCF7. The experiment in a line: Antiproliferative activity against human MCF7 cells […] by MTS assay. Format: functional, cell-based.
Assay [8] has as its target Vascular endothelial growth factor receptor 2 (Homo sapiens, UniProt P35968). Put plainly: Inhibition of VEGFR2 (unknown origin).
Assay [9] concerns HT-29. Put plainly: Antiproliferative activity against human HT-29 cells at 10 uM by MTS assay. It counts as functional, cell-based.

The structures appear in SMILES notation.

Vascular endothelial growth factor receptor 2, sequence (P35968 whole entry): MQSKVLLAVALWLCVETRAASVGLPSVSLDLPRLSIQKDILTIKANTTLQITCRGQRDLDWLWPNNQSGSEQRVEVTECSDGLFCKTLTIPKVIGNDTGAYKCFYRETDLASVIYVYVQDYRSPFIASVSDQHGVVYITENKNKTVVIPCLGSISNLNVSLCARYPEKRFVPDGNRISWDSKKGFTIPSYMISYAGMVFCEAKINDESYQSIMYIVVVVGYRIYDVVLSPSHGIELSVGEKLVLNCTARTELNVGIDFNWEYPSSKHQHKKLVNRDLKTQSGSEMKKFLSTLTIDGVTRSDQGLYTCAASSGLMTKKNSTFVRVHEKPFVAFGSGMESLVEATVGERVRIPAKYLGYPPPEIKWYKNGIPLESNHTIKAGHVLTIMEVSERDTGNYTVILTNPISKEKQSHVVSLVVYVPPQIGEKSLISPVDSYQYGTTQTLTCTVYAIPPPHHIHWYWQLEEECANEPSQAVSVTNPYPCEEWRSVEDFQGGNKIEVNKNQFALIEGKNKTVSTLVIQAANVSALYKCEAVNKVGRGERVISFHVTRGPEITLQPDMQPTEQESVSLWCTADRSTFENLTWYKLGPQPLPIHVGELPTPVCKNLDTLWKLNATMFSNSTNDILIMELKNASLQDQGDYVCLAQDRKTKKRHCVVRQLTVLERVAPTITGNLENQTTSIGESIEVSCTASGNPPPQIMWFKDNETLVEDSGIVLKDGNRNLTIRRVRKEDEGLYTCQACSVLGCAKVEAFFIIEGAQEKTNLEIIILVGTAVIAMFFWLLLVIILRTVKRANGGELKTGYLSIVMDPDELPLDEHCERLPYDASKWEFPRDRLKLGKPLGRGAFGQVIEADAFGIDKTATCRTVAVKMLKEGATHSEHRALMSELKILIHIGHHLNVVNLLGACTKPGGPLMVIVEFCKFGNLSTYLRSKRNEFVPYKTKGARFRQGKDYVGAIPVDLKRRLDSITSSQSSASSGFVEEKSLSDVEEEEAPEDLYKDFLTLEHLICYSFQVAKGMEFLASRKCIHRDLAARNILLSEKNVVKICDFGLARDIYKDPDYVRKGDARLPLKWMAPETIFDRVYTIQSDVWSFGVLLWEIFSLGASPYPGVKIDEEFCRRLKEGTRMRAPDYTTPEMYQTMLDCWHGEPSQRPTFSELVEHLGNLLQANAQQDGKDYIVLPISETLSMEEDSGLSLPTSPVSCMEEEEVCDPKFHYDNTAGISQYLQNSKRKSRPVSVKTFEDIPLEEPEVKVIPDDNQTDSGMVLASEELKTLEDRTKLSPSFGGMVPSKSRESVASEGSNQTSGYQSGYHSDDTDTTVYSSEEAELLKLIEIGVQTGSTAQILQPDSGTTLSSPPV
Epidermal growth factor receptor, sequence (P00533 whole entry): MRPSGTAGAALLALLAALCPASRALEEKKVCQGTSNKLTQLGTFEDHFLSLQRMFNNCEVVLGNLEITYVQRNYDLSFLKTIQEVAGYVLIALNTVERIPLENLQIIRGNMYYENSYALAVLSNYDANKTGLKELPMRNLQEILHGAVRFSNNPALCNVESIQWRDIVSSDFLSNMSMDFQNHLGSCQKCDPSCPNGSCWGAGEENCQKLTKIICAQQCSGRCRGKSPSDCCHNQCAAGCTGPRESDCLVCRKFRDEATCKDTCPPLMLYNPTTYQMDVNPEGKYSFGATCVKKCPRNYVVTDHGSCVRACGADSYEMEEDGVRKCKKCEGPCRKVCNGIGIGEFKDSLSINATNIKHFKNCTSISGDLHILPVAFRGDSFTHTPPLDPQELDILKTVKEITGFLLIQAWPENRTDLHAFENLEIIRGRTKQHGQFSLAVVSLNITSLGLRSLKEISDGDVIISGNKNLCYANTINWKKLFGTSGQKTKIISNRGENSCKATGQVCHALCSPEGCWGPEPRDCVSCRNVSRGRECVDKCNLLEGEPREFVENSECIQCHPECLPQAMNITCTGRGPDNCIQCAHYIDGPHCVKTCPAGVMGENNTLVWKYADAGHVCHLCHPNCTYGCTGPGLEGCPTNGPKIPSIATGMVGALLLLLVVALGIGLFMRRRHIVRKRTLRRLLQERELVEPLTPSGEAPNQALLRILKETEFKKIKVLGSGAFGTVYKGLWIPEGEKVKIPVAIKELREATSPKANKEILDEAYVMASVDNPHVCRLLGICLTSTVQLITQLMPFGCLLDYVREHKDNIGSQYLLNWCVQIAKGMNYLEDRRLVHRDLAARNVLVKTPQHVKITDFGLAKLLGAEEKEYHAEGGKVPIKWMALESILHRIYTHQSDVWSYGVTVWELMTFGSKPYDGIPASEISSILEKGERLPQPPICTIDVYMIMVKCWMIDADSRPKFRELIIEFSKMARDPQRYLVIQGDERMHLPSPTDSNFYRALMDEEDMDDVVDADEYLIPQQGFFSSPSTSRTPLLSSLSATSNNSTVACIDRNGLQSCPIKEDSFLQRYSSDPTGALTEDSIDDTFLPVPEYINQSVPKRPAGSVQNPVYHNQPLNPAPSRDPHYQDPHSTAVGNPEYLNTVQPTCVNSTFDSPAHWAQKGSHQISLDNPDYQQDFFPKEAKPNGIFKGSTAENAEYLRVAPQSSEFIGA

For `CCC(=O)Nc1ccc(Nc2ncnc3cc(OC)c(OC)cc23)cc1C.Cl`, the results for the “inhibition (INH)” value with PC-3 [1], in the assay on HT-29 [2] and with MCF7 [3] were 0%, 0% and 28%, respectively. The compound further returned an IC50 in [4] of over 10 µM.
As to `CCCCOc1cc2c(Nc3ccc(NC(=O)OCC)c(C)c3)ncnc2cc1OCCN(CC)CC`, the 50% inhibitory concentration (IC50) in assay [5] is 8.1 µM; in the assay with PC-3 [6], over 10 µM; in the assay on MCF7 [7], over 10 µM; in assay [4], over 10 µM; in [8], 5.7 µM.
As to `CCCCOC(=O)Nc1ccc(Nc2ncnc3cc(OC)c(OC)cc23)cc1C`, the IC50 is 7.6 µM in assay [4] and 5.2 µM in assay [8].
For `CCOC(=O)Nc1ccc(Nc2ncnc3cc(OCCN4CCOCC4)c(OC)cc23)cc1C`, the IC50 in assay [5] is over 10 µM; in the assay on PC-3 [6] it was over 10 µM; with HT-29 [9] it was over 10 µM; with MCF7 [7], over 10 µM; in [4] it was 8 µM; in [8], 0.4 µM.
With `COc1cc2/c(=N/c3ccc(Br)cc3F)nc[nH]c2cc1OCC1CCN(C)CC1` [VANDETANIB], the “inhibition (INH)” value in the assay on PC-3 [1] is given as 33%; with MCF7 [3] it was 26%.
`COc1cc2ncnc(Nc3ccc(NC(C)=O)c(C)c3)c2cc1OC.Cl`: the “inhibition (INH)” value with PC-3 [1], in the assay with HT-29 [2] and in the assay on MCF7 [3] was 0% throughout. This compound also showed an IC50 in assay [4] of over 10 µM.
The compound `CCOC(=O)Nc1ccc(Nc2ncnc3cc(OC)c(OC)cc23)cc1Cl` had an IC50 in assay [4] of 1 µM.
For the compound `CCNC(=O)Nc1cc(Cl)c(Nc2ncnc3cc(OC)c(OC)cc23)cc1Cl.Cl`, the “inhibition (INH)” value in the assay with PC-3 [1] was determined as 11%; in the assay on HT-29 [2], 16%; in the assay on MCF7 [3] it was 21%. The IC50 in assay [4] is over 10 µM.
As to `CCOC(=O)Nc1ccc(Nc2ncnc3cc(OCCN4CCCCC4)c(OC)cc23)cc1Cl`, the IC50 in assay [5] was 9.3 µM; with PC-3 [6], over 10 µM; in the assay with HT-29 [9], 5.2 µM; in the assay on MCF7 [7], 3 µM; in assay [4], over 10 µM; in assay [8], 0.8 µM.
`CCCCOC(=O)Nc1ccc(Nc2ncnc3cc(OC)c(OC)cc23)cc1` registered an IC50 in assay [4] of 0.8 µM.
With `COC(=O)Nc1cc(Nc2ncnc3cc(OC)c(OC)cc23)ccc1Cl.Cl`, the “inhibition (INH)” value in the assay on PC-3 [1] is 3%; in the assay on HT-29 [2] it was 0%; in the assay with MCF7 [3], 0%. For the same compound, the IC50 in assay [4] is over 10 µM.
As for `CCCCOc1cc2c(Nc3ccc(NC(=O)OCC)c(Cl)c3)ncnc2cc1OCCN(CC)CC`, the half-inhibitory concentration (IC50) in assay [5] is 2.8 µM; in the assay with PC-3 [6], over 10 µM; in assay [4] it was 9.8 µM; in assay [8], 4.8 µM.
In assay [4], `COC(=O)Nc1ccc(Nc2ncnc3cc(OC)c(OC)cc23)cc1C` returned a half-inhibitory concentration (IC50) of 4 µM.
For the compound `CCOC(=O)Nc1ccc(Nc2ncnc3cc(OC)c(OCCN(CC)CC)cc23)cc1C`, the half-inhibitory concentration (IC50) is over 10 µM in [5]; over 10 µM in the assay on PC-3 [6]; over 10 µM in the assay with HT-29 [9]; over 10 µM with MCF7 [7]; over 10 µM in assay [4]; 7.2 µM in assay [8].
The compound `CCCOC(=O)Nc1ccc(Nc2ncnc3cc(OC)c(OC)cc23)cc1` displayed an IC50 in assay [4] of 7.05 µM.
In assay [4], `CCOC(=O)Nc1cc(Nc2ncnc3cc(OC)c(OC)cc23)ccc1C` had an IC50 of 5 µM.
As for `CCCCNC(=O)Nc1cc(Cl)c(Nc2ncnc3cc(OC)c(OC)cc23)cc1Cl.Cl`, the “inhibition (INH)” value came out at 0% in the assay on PC-3 [1], 3% in the assay on HT-29 [2] and 0% in the assay with MCF7 [3]. The IC50 in assay [4] was over 10 µM.
Compound `CCCCOC(=O)Nc1ccc(Nc2ncnc3cc(OC)c(OC)cc23)cc1Cl` had an IC50 in assay [4] of 6.4 µM.
Turning to `CCOC(=O)Nc1ccc(Nc2ncnc3cc(OCCN(CC)CC)c(OC)cc23)cc1Cl`, the IC50 in assay [5] is 6.2 µM; with PC-3 [6], over 10 µM; in the assay with MCF7 [7], over 10 µM; in assay [4] it was over 10 µM; in [8], 3.3 µM.
As to `CCOC(=O)Nc1cc(Nc2ncnc3cc(OC)c(OC)cc23)ccc1Cl`, half-maximal inhibition in assay [4] (IC50) was put at 0.9 µM.
As to `COC(=O)Nc1ccc(Nc2ncnc3cc(OC)c(OC)cc23)cc1Cl`, the IC50 in assay [4] was 6.15 µM; in [8], 5.05 µM.
With `CCOC(=O)Nc1ccc(Nc2ncnc3cc(OCCN4CCCCC4)c(OC)cc23)cc1C`, the IC50 was 9.3 µM in assay [5]; over 10 µM in the assay with PC-3 [6]; 5.2 µM in the assay with HT-29 [9]; over 10 µM in the assay with MCF7 [7]; over 10 µM in assay [4]; 0.9 µM in [8].
Regarding `CCCOc1cc2ncnc(Nc3ccc(NC(=O)OCC)c(C)c3)c2cc1OC`, in assay [4], the IC50 came out at 3.9 µM.
As to `CCOC(=O)Nc1cc(Cl)c(Nc2ncnc3cc(OC)c(OC)cc23)cc1Cl.Cl`, the “inhibition (INH)” value with PC-3 [1] is listed as 0%; in the assay with HT-29 [2] it was 5%; in the assay with MCF7 [3], 6%. In assay [4], this compound displayed an IC50 of over 10 µM.
In [4], `CCCOc1cc2ncnc(Nc3ccc(NC(=O)OCC)c(Cl)c3)c2cc1OC` displayed an IC50 of 5.5 µM.
Still for that read-out and setting: next, `CCCCC(=O)Nc1ccc(Nc2ncnc3cc(OC)c(OC)cc23)cc1C`: over 10 µM; `CCCOC(=O)Nc1ccc(Nc2ncnc3cc(OC)c(OC)cc23)cc1Cl`: 1 µM.
On to `CCCC(=O)Nc1ccc(Nc2ncnc3cc(OC)c(OC)cc23)cc1C`, for which the IC50 is over 10 µM in assay [4] and 4.3 µM in [8].
In the case of `CCOC(=O)Nc1ccc(Nc2ncnc3cc(OCCN(CC)CC)c(OC)cc23)cc1C`, the IC50 in [5] was over 10 µM; in the assay on PC-3 [6], over 10 µM; in the assay with HT-29 [9], over 10 µM; with MCF7 [7], over 10 µM; in assay [4], over 10 µM; in [8], 3.7 µM.
As for `CCOC(=O)Nc1ccc(Nc2ncnc3cc(OCCN4CCOCC4)c(OC)cc23)cc1Cl`, the IC50 in assay [5] is over 10 µM; in the assay on PC-3 [6], over 10 µM; in the assay with HT-29 [9], over 10 µM; with MCF7 [7] it was over 10 µM; in [4], 8.5 µM; in assay [8], 0.3 µM.
On to `CCOC(=O)Nc1ccc(Nc2ncnc3cc(OC)c(OC)cc23)cc1C`, for which the IC50 in assay [4] amounted to 0.9 µM.

The values above are taken from ChEMBL document CHEMBL3217416, “[4-(6,7-Disubstituted quinazolin-4-ylamino)phenyl] carbamic acid esters: a novel series of dual EGFR/VEGFR-2 tyrosine kinase inhibitors” (Medchemcomm, 2011).
